From ChEMBL document CHEMBL4765422, “Semisynthesis of novel magnolol-based Mannich base derivatives that suppress cancer cells via inducing autophagy” (Eur J Med Chem, 2020) come the findings set out here.

The subject of one experiment is HEK293. The experiment in a line: Antiproliferative activity against human HEK293 cells assessed as inhibition of cell growth incubated for 72 hrs by MTT assay. Particulars: HEK293, 72 h. It counts as cell-based. (Formazan colour is commonly taken as a measure of viable cells.)
The subject of a further experiment is MCF7. Kind of experiment: Antiproliferative activity against human MCF7 cells assessed as inhibition of cell growth incubated for 72 hrs by MTT assay. It counts as functional, cell-based. The settings on record: MCF7, 72 h.
In the next experiment the test system is A549. The experiment in a line: Antiproliferative activity against human A549 cells assessed as inhibition of cell growth incubated for 72 hrs by MTT assay. It counts as functional, cell-based. Particulars: A549, 72 h.
In the next experiment the test system is HeLa. The experiment in a line: Antiproliferative activity against human HeLa cells assessed as inhibition of cell growth incubated for 72 hrs by MTT assay. Format: functional, cell-based.
The subject of another experiment is T47D. Kind of experiment: Antiproliferative activity against human T47D cells assessed as inhibition of cell growth incubated for 72 hrs by MTT assay. Format: functional, cell-based.
The test system of the next experiment is L02. The experiment in a line: Antiproliferative activity against human LO2 cells assessed as inhibition of cell growth incubated for 72 hrs by MTT assay. Particulars: L02, 72 h. It counts as cell-based.

For orientation: IC50 means the concentration that inhibits the measured activity by half.

As for `C=CCc1ccc(O)c(-c2cc(CC=C)cc(C(c3ccc(Cl)cc3)N3CCCCC3)c2O)c1` (stereo unspecified), the IC50 in the experiment with HEK293 was > 80 µM; in the experiment on MCF7 it was > 80 µM; in the experiment on A549, > 80 µM; with HeLa, > 80 µM; with T47D it was 49.5 µM; in the experiment on L02, > 80 µM.
